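Interpolation was linear, between the two tested concentrations surrounding the appropriate level; five concentrations were tested over 48 hours in 96-well plates. TGI is the concentration that stops growth completely.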
Legend:
Test in all cases: NCI anticancer screen, dose series, 48 h
[1] = tested on: 786-0 renal
[2] = tested on: A498 renal
[3] = tested on: A549 NSCLC
[4] = tested on: ACHN renal
[5] = tested on: BT-549 breast
[6] = tested on: CAKI-1 renal
[7] = tested on: CCRF-CEM leukemia
[8] = tested on: COLO 205 colon
[9] = tested on: DU-145 prostate
[10] = tested on: EKVX NSCLC
[11] = tested on: HCC-2998 colon
[12] = tested on: HCT-116 colon
[13] = tested on: HCT-15 colon
[14] = tested on: HOP-62 NSCLC
[15] = tested on: HOP-92 NSCLC
[16] = tested on: HS 578T breast
[17] = tested on: HT29 colon
[18] = tested on: IGROV1 ovarian
[19] = tested on: K-562 leukemia
[20] = tested on: KM12 colon
[21] = tested on: LOX IMVI melanoma
[22] = tested on: M14 melanoma
[23] = tested on: MALME-3M melanoma
[24] = tested on: MCF7 breast
[25] = tested on: MDA-MB-231 breast
[26] = tested on: MDA-MB-435
[27] = tested on: MDA-N
[28] = tested on: MOLT-4 leukemia
[29] = tested on: NCI-H226 lung
[30] = tested on: NCI-H23 lung
[31] = tested on: NCI-H460 lung
[32] = tested on: NCI-H522 lung
[33] = tested on: NCI/ADR-RES ovarian
[34] = tested on: OVCAR-3 ovarian
[35] = tested on: OVCAR-4 ovarian
[36] = tested on: OVCAR-5 ovarian
[37] = tested on: OVCAR-8 ovarian
[38] = tested on: PC-3 prostate
[39] = tested on: RPMI-8226 leukemia
[40] = tested on: RXF 393 renal
[41] = tested on: SF-268 CNS
[42] = tested on: SF-295 CNS
[43] = tested on: SF-539 CNS
[44] = tested on: SK-MEL-2 melanoma
[45] = tested on: SK-MEL-28 melanoma
[46] = tested on: SK-MEL-5 melanoma
[47] = tested on: SK-OV-3 ovarian
[48] = tested on: SN12C renal
[49] = tested on: SNB-19 CNS
[50] = tested on: SNB-75 CNS
[51] = tested on: SR leukemia
[52] = tested on: SW-620 colon
[53] = tested on: TK-10 renal
[54] = tested on: U251 CNS
[55] = tested on: UACC-257 melanoma
[56] = tested on: UO-31 renal

C=C(Cl)C(Cl)(CBr)CCC(Cl)C(C)(C)Cl (stereo unspecified)
TGI [1]: 1.32 µM
TGI [2]: 4.04 µM
TGI [3]: 12.7 µM
TGI [4]: 3.9 µM
TGI [5]: 20.1 µM
TGI [6]: 2.48 µM
TGI [7]: 29.2 µM
TGI [8]: 10.5 µM
TGI [9]: 3.31 µM
TGI [10]: 20.9 µM
TGI [11]: 16.4 µM
TGI [12]: 2.02 µM
TGI [13]: 14.7 µM
TGI [14]: 4.04 µM
TGI [15]: 2.52 µM
TGI [16]: 0.284 µM
TGI [17]: 0.968 µM
TGI [18]: 26.3 µM
TGI [19]: 29.3 µM
TGI [20]: 1.94 µM
TGI [21]: 28 µM
TGI [22]: 35.6 µM
TGI [23]: 22.8 µM
TGI [24]: 3.56 µM
TGI [25]: 5.83 µM
TGI [26]: 8.21 µM
TGI [27]: 7.55 µM
TGI [28]: 53 µM
TGI [29]: 61 µM
TGI [30]: 34.3 µM
TGI [31]: 2.83 µM
TGI [32]: 23 µM
TGI [33]: 11.8 µM
TGI [34]: 3.34 µM
TGI [35]: 3.88 µM
TGI [36]: 7.41 µM
TGI [37]: 13 µM
TGI [38]: 3.36 µM
TGI [39]: 0.872 µM
TGI [40]: 10.9 µM
TGI [41]: 2.92 µM
TGI [42]: 7.73 µM
TGI [43]: 1.35 µM
TGI [44]: 1.84 µM
TGI [45]: 3.8 µM
TGI [46]: 24.7 µM
TGI [47]: 70.8 µM
TGI [48]: 22.5 µM
TGI [49]: 7 µM
TGI [50]: 1.77 µM
TGI [51]: 39.4 µM
TGI [52]: 4.75 µM
TGI [53]: 2.71 µM
TGI [54]: 1.69 µM
TGI [55]: 3.79 µM
TGI [56]: 5.15 µM
